Numbers after ± are expanded uncertainties.
Details: Liquid

Structure (SMILES): CCCCCC [hexane]
- vapor or sublimation pressure (303.15 K): 25.01 ± 0.37 kPa
- vapor or sublimation pressure (313.15 K): 37.54 ± 0.53 kPa
- vapor or sublimation pressure (323.15 K): 54.39 ± 0.74 kPa

Structure (SMILES): CCCCCCC [heptane]
- vapor or sublimation pressure (303.15 K): 7.87 ± 0.16 kPa
- vapor or sublimation pressure (313.15 K): 12.33 ± 0.22 kPa
- vapor or sublimation pressure (323.15 K): 18.95 ± 0.3 kPa
